Measurements taken from publication PMC4604124, “In Vitro Characterization of the Pharmacological Properties of the Anti-Cancer Chelator, Bp4eT, and Its Phase I Metabolites” (PLoS ONE, 2015).

Experiments:
[1] = parameters: method as in PMID 24254882; conditions: cited from earlier work
[2] = tested on: MCF-7 cells; assay: Epifluorescence microscopy, triple staining MDC / annexin V-FITC / propidium iodide; format: cell-based, human; conditions: Bp4eT 10 or 100 nM 72 h, rapamycin 1 nM 30 min
Description: Markers used to assess autophagy/apoptosis/necrosis in MCF-7 cells and changes of lysosomal and mitochondrial morphology were observed using an Eclipse Ti inverted epifluorescence microscope (Nikon, Tokyo, Japan), that was equipped with a cooled digital camera Zyla 5.5 sCMOS (Andor Technology, Belfast, UK), and NIS-Elements C 4.1 software (Laboratory Imaging, Prague, Czech Republic). The MCF-7 cells were seeded in 6-well plates with cover slips on the bottom at a density of 150,000 cells/well and incubated as described above in the presence or absence of 10 or 100 nM Bp4eT.
To assess the mechanism of cellular death after incubation with Bp4eT, triple staining with monodansyl cadaverine (MDC; 50 μM; λex = 390 nm; λem = 455 nm; Sigma-Aldrich), annexin V-FITC (5 μL/mL; λex = 495 nm; λem = 519 nm; Invitrogen, Carlsbad, CA, USA), and propidium iodide (5 μg/mL; λex = 560 nm; λem = 630 nm) was used. MDC is a marker of autophagosomes and lysosomes and results in blue fluorescence. As a positive control for autophagy, MCF-7 cells were incubated with 1 nM rapamycin (Sigma-Aldrich) for 30 min/37°C, which is an established inducer of autophagy. Annexin V has high affinity to phosphatidylserine, which is translocated to the surface of both early- and late-stage apoptotic cells. […]

[3] = tested on: MCF-7 cells; assay: Viability (viabilita) used to normalise caspase activity; format: cell-based, human; conditions: kontrola = 100;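 further: compound tested at 100 nM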
Description: Supplement pone.0139929.s002.zip/caspases activity.xlsx, sheet "results_viability"

In the case of CCN=CNN=C(c1ccccc1)c1ccccn1 [Bp4eA, N ^3-ethyl-N ^1-[phenyl(pyridin-2-yl)methylene]formamidrazone], the “Highest concentration in plasma” value ([1]; rat plasma, after 300 min post i.v. administration of Bp4eT) is given as less than 1 µM and the “Exposure relative to that of the parent compound” value ([1]; rats, intravenous administration of Bp4eT) is given as 20%.

With CCNC(=S)NN=C(c1ccccc1)c1ccccn1 [Bp4eT, 2-benzoylpyridine 4-ethyl-3-thiosemicarbazone] the “Staining for autophagy/apoptosis/necrosis (MDC, annexin V-FITC, propidium iodide)” value [2] was “dose-dependent increase in the number of green annexin V-stained cell membranes or bodies”.

CCNC(=O)NN=C(c1ccccc1)c1ccccn1 [E-Bp4eS, 2-benzoylpyridine 4-ethylsemicarbazone] gave a viabilita ([3]; 3 hodiny) of 98.187, a viabilita ([3]; 24 hodin) of 99.4673 and a viabilita ([3]; 72 hodin) of 97.81.
